Results: ChEMBL document CHEMBL4507270 (2021)
Calls of active or inactive are those of the source. The calls are words filed in the database; no cut-off is given here.

Key:
[1] = molecular target: Epithelial discoidin domain-containing receptor 1 (Homo sapiens, UniProt Q08345); experiment: Inhibition of DDR1 at compound concentration of 10.0 uM using the ScanMax (DiscoverX)
[2] = molecular target: T1, Discoidin domain-containing receptor 2 (Homo sapiens, UniProt Q16832); experiment: Inhibition of DDR2 at compound concentration of 10.0 uM using the ScanMax (DiscoverX)
T1 sequence (Q16832 whole entry): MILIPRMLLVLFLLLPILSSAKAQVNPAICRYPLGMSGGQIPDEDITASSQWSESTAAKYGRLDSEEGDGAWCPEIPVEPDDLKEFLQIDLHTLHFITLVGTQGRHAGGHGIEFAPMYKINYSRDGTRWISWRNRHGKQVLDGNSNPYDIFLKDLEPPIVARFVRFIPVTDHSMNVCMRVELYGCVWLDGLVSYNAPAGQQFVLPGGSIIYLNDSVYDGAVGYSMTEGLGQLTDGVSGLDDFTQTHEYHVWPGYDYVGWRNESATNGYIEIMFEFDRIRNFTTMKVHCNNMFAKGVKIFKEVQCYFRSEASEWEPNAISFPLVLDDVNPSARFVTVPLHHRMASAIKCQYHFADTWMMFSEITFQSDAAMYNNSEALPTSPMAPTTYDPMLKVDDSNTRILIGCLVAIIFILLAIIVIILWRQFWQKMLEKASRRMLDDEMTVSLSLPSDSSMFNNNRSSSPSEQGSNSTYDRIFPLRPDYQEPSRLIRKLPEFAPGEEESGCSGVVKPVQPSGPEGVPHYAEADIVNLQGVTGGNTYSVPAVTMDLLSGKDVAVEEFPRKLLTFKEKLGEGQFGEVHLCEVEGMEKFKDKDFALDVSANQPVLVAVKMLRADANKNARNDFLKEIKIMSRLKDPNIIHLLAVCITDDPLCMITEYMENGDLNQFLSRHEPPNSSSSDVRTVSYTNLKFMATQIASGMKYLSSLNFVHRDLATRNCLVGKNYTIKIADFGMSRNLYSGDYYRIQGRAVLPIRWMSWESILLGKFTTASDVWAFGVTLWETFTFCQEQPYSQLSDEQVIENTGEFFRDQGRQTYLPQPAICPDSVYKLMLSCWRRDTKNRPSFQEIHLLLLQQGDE

[3] = molecular target: 5-hydroxytryptamine receptor 2B (Homo sapiens, UniProt P41595); experiment: GPCRScan assay: inhibition of 5-HT2B; design: radioligand conc. used [nm] 1.0 – 2.0, parental cells stable HEK
[4] = molecular target: 5-hydroxytryptamine receptor 2C (Homo sapiens, UniProt P28335); experiment: GPCRScan assay: inhibition of 5-HT2C; design: radioligand conc. used [nm] 1.0 – 2.5, parental cells HEK T
D(2) dopamine receptor = D(2) dopamine receptor (Homo sapiens, UniProt P14416); experiment: GPCRScan assay: inhibition of D2; design: radioligand conc. used [nm] 0.4 – 1.0, parental cells stable fibroblast
[5] = molecular target: Sodium-dependent noradrenaline transporter (Homo sapiens, UniProt P23975); experiment: GPCRScan assay: inhibition of NET; design: radioligand conc. used [nm] 1.3 – 5.0, parental cells stable HEK
Mu-type opioid receptor = Mu-type opioid receptor (Homo sapiens, UniProt P35372); experiment: GPCRScan assay: inhibition of MOR; design: radioligand conc. used [nm] 1.0 – 2.0, parental cells stable HEK
[6] = molecular target: Delta-type opioid receptor (Homo sapiens, UniProt P41143); experiment: GPCRScan assay: inhibition of DOR; design: radioligand conc. used [nm] 1.0 – 2.0, parental cells stable HEK
[7] = molecular target: T2, Tyrosine-protein kinase receptor Tie-1 (Homo sapiens, UniProt P35590); experiment: NanoBRET assay (SGC Frankfurt) with TIE1
Angiopoietin-1 receptor [8] = molecular target: T3, Angiopoietin-1 receptor (Homo sapiens, UniProt Q02763); experiment: KINOMEScan (DiscoveRx Corp) with TEK
[9] = molecular target: Serine/threonine-protein kinase 10 (Homo sapiens, UniProt O94804); experiment: NanoBRET assay (SGC Frankfurt) with STK10
[10] = molecular target: T2, Tyrosine-protein kinase receptor Tie-1; conditions: Compound concentration 1000.0 nM
[11] = molecular target: 5-hydroxytryptamine receptor 6 (Homo sapiens) (UniProt P50406); conditions: Compound concentration 10.0 uM
[12] = molecular target: D(1B) dopamine receptor (Homo sapiens) (UniProt P21918); conditions: Compound concentration 10.0 uM
[13] = molecular target: GABA-A receptor; anion channel (Rattus norvegicus) (UniProt O09028+P15431+P18506+P18508+P19969+P20236+P23574+P23576+P28471+P28473+P30191+P62813+P63079+P63138+Q91ZM7+Q9ES14); conditions: Compound concentration 10.0 uM
[14] = molecular target: Beta-3 adrenergic receptor (Homo sapiens, UniProt P13945); experiment: GPCRScan assay: inhibition of Beta3; design: radioligand conc. used [nm] 0.2 – 0.5, parental cells HEK Flp-In
Angiopoietin-1 receptor [15] = molecular target: T3, Angiopoietin-1 receptor; experiment: Bayer in-house kinase assay with TEK
[16] = molecular target: Vascular endothelial growth factor receptor 2 (Homo sapiens, UniProt P35968); experiment: KINOMEScan (DiscoveRx Corp) with KDR
[17] = molecular target: Fibroblast growth factor receptor 1 (Homo sapiens, UniProt P11362); experiment: Bayer in-house kinase assay with FGFR1
[18] = molecular target: Platelet-derived growth factor receptor beta (Homo sapiens, UniProt P09619); experiment: Bayer in-house kinase assay with PDGFRB
[19] = molecular target: Vascular endothelial growth factor receptor 3 (Homo sapiens, UniProt P35916); experiment: Bayer in-house kinase assay with FLT4
[20] = molecular target: D(3) dopamine receptor (Homo sapiens) (UniProt P35462); conditions: Compound concentration 10.0 uM
[21] = molecular target: Histamine H1 receptor (Homo sapiens) (UniProt P35367); conditions: Compound concentration 10.0 uM
[22] = molecular target: Histamine H3 receptor (Homo sapiens) (UniProt Q9Y5N1); conditions: Compound concentration 10.0 uM
[23] = molecular target: Histamine H4 receptor (Homo sapiens) (UniProt Q9H3N8); conditions: Compound concentration 10.0 uM

T2 sequence (P35590 whole entry): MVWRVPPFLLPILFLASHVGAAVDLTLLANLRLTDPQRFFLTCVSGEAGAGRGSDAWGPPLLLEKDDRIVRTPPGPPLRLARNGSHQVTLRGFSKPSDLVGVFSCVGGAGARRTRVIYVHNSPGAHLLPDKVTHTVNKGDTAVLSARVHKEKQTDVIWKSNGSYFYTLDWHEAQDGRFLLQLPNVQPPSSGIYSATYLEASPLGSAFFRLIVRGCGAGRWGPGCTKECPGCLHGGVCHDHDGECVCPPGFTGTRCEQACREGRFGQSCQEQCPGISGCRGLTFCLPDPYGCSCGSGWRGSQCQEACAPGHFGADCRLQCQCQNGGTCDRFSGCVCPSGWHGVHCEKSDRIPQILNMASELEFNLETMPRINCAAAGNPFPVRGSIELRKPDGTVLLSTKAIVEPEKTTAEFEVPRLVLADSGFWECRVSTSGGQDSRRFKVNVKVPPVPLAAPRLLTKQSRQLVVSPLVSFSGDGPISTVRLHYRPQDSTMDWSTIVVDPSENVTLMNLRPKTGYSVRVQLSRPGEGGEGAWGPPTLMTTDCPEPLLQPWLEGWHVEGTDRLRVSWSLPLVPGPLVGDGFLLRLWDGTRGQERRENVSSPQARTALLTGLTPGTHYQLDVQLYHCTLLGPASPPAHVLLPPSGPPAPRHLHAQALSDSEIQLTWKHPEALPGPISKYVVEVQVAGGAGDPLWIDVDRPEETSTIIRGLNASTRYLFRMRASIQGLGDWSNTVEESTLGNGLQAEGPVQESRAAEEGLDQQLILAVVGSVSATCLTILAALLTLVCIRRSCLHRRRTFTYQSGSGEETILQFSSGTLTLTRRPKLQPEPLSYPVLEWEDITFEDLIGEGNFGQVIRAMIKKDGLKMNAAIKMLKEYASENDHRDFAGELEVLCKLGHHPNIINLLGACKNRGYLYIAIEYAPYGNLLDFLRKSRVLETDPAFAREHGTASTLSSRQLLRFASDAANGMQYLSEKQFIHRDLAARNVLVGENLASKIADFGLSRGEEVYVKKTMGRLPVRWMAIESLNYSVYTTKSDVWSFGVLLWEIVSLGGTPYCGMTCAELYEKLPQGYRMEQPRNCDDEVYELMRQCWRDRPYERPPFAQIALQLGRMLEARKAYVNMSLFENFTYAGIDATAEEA
T3 sequence (Q02763 whole entry): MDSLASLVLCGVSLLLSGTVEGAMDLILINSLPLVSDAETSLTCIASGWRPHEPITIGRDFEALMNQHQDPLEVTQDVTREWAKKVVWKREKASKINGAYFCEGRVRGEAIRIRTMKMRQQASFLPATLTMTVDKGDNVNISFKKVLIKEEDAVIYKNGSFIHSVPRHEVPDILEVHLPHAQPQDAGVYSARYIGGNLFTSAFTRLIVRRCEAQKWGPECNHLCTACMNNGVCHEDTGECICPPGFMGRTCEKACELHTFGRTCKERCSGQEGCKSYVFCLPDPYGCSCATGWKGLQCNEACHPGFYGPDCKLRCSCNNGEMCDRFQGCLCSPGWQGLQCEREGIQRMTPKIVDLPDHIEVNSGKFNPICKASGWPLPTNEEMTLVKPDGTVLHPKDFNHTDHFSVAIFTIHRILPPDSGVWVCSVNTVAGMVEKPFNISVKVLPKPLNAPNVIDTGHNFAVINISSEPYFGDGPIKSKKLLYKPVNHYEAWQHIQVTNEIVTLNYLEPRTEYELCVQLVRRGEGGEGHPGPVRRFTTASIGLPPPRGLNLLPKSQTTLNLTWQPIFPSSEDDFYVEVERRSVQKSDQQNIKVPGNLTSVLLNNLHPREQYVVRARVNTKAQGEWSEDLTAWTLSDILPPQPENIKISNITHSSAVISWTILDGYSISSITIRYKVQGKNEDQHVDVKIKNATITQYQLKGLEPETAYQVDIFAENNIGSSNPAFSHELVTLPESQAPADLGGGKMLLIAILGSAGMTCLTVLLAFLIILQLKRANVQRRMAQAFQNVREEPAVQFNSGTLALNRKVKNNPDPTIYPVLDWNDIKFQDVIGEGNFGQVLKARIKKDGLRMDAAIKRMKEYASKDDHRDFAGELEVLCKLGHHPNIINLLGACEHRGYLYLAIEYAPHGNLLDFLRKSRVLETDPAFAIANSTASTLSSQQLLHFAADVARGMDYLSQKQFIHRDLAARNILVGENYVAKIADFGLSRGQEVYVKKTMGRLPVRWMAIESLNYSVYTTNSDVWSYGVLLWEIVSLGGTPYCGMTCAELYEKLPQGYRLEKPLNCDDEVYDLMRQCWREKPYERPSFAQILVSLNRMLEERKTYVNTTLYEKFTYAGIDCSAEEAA
Chain of Serine/threonine-protein kinase 10 (O94804 whole entry): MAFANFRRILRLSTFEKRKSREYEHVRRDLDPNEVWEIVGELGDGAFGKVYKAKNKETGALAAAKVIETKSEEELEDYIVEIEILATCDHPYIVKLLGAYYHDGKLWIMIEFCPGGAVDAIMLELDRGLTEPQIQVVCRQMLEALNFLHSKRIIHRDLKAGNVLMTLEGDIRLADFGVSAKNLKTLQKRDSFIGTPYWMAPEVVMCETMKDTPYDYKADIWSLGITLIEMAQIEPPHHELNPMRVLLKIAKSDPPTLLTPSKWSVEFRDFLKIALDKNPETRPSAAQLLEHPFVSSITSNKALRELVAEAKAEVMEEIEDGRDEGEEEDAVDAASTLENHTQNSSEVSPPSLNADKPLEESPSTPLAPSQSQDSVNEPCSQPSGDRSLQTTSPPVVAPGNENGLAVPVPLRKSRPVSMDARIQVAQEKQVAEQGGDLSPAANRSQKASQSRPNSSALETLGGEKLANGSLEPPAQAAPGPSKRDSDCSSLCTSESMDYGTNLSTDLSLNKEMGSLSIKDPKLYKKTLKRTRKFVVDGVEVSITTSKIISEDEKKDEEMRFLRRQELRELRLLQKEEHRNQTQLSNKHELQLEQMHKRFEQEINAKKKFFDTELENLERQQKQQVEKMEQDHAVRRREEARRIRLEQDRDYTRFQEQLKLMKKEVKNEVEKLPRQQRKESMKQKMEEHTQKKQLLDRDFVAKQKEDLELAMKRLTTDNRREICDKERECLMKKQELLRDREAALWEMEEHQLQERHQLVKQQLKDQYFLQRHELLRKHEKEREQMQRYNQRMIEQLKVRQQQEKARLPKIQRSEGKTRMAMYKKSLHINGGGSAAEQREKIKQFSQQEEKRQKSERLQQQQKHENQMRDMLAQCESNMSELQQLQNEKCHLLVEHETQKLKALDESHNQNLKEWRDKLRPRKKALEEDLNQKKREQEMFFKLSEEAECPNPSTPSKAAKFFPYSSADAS
Chain of Beta-3 adrenergic receptor (P13945 whole entry): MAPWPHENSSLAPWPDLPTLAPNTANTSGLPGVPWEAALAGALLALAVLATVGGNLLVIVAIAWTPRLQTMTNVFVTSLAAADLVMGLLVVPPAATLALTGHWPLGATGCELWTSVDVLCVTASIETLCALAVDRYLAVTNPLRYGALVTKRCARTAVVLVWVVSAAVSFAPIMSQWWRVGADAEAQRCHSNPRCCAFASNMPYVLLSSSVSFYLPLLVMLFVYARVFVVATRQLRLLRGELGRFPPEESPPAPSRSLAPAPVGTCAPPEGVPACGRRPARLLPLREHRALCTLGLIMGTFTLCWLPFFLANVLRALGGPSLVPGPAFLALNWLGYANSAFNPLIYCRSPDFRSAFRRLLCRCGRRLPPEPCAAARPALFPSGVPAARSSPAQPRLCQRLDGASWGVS
Chain of Delta-type opioid receptor (P41143 whole entry): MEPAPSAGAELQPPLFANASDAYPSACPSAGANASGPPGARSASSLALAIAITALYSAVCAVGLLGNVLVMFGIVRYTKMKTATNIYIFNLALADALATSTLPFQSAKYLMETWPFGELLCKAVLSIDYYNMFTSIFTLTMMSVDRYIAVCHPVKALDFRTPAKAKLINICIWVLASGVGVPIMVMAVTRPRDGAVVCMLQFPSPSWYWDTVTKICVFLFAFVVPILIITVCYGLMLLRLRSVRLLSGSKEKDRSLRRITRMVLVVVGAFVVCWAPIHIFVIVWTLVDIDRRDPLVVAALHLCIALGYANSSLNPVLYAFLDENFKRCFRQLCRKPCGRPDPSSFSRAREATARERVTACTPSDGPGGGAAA
Chain of D(2) dopamine receptor (P14416 whole entry): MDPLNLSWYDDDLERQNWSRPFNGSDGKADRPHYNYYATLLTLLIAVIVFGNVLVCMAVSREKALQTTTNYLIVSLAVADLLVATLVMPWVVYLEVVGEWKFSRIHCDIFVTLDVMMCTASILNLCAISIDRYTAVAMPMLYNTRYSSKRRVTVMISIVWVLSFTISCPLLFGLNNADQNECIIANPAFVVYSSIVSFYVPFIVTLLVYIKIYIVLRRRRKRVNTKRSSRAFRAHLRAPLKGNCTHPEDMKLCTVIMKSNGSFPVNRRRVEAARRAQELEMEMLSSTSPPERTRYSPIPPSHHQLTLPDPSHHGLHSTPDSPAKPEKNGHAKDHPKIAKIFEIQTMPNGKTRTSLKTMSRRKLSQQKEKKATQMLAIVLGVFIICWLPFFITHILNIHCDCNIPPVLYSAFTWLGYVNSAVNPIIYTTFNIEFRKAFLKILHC
Chain of Histamine H1 receptor (Homo sapiens) (P35367 whole entry): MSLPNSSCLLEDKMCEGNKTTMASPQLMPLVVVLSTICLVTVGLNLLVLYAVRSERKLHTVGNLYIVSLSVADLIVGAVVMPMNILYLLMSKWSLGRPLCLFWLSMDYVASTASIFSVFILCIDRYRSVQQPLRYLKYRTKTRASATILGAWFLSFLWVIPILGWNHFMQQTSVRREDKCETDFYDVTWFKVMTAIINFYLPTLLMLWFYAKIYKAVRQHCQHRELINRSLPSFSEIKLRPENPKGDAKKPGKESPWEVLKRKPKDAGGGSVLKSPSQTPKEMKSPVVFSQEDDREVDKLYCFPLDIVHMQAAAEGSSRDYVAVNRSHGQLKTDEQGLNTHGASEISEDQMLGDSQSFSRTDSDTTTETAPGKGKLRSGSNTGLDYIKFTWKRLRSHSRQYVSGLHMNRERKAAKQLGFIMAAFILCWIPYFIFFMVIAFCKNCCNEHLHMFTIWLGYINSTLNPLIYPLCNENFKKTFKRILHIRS

In the case of Cc1cc(NC(=O)c2cccc(S(F)(F)(F)(F)F)c2)cc(-n2ccn3nc(-c4cccnc4)cc23)c1 [BAY-309], the Kd [1] is reported as 0.0021 µM (active), the Kd [2] is reported as 0.063 µM (not active) and the Ki [3] is reported as 2.15 µM. The Ki [4] was 4.86 µM, the Ki (D(2) dopamine receptor) was 10 µM and the Ki [5] was 10 µM. For the same compound, the Ki (Mu-type opioid receptor) was 6.99 µM, the Ki [6] was 1.73 µM and the EC50 [7] was 2.6 µM (not active). The IC50 [7] was 0.13 µM (not active), the Kd (Angiopoietin-1 receptor [8]) was > 20 µM (not active) and the EC50 [9] was 3.2 µM (not active). For the same compound, the IC50 [9] was > 10 µM (not active), the residual activity [10] was 34.2% and the inhibition [11] was 5.64%. The inhibition [12] was 34.9% and the inhibition [13] was 33.3%.

In the case of Cc1cc(C)c(-n2ccn3nc(-c4cccnc4)cc23)cc1NC(=O)c1cc(C#N)cc(S(F)(F)(F)(F)F)c1 [BAY-826], the Ki ([14]; read-out: Ki) is reported as 7.1 µM, the Ki ([14]; read-out: pKi (converted)) is reported as 6.68 µM and the IC50 (Angiopoietin-1 receptor [15]) is reported as 0.00045 µM (active). For the same compound, the Kd [16] was 1.6 µM (not active), the IC50 [17] was > 10 µM (not active) and the IC50 [18] was > 20 µM (not active). The IC50 [19] was 0.44 µM (not active), the inhibition [20] was -5.85% and the inhibition [21] was 25.3%. It also gave an inhibition [22] of -5.88% and an inhibition [23] of 11.9%.
